From patent US20150374755A1, “Treated Cells and Therapeutic Uses” (NHS BLOOD & TRANSPLANT, priority 2013, published 2015) come the findings set out here.

For this assay, the system named is CD4 and CD8 T lymphocytes. The experiment in a line: Suppression of stimulated T cell proliferation (CFSE) by drug pre-incubated MSC. It counts as cell-based, human. To be noted: MSC pre-incubated with 50 ng/ml; FIG. 6. The procedure:
MSC derived from (FIG. 1A,E) bone marrow (BM) or (FIG. 1B-D) two independent umbilical cord (UC) preparations (WJ6060:FIG. 1B-C; WJ24-0: FIG. 1D) were incubated with Rapamycin overnight at concentrations from 0.4 to 50 ng/ml, or without drug (control (Ctl)). The MSC were washed, trypsinised, and plated in fresh medium without Rapamycin at 1, 5, and 25 k per well in 96 well plates. After 2-4 hours, human adult peripheral blood mononuclear cells (MNC) labelled with carboxyfluorescein succinimidyl ester (CFSE) were added, and the T lymphocytes therein were stimulated to proliferate with Phytohemagglutinin (PHA) (FIG. 1A-D) or anti-CD3, CD28 activation beads (FIG. 1E). Proliferation levels were determined after 3 days as described in the Methods section. […]
After 3-4 (PHA or bead stimulation) or 5-6 days (allostimulation) the cultures were analysed by flow cytofluorometry after staining for CD3 and CD4, and the CFSE dye-dilution profiles of CD3+CD4+ (CD4) and CD3+CD4- (CD8) lymphocytes were used to calculate proliferation indices (Lyons (2000)). To normalise the level of proliferation between experiments, the proliferation indices were calculated as: (proliferation index for condition X−proliferation index for unstimulated cells)/(proliferation index for PHA or bead stimulated control cells−proliferation index for unstimulated cells). […]

SMILES strings stand for the structures.

Consider `CCC(=O)N1CCN(c2ccc(-n3c(=O)ccc4cnc5ccc(-c6cnc7ccccc7c6)cc5c43)cc2C(F)(F)F)CC1` [Torin 1], for which the “super-suppression by pre-incubated MSC” value is given as “no significant super-suppression”.
